Test results taken from PubChem BioAssay (NCI).
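Each compound was tested at five concentrations against cells in 96-well plates for 48 hours. GI50 marks 50% less growth. TGI: total growth inhibition.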

What was measured:
Assay in all cases: DTP human tumour cell line panel, 48 h
HCC-2998 colon = test system: HCC-2998 colon
SNB-75 CNS = test system: SNB-75 CNS
NCI-H522 lung = test system: NCI-H522 lung
786-0 renal = test system: 786-0 renal
RXF 393 renal = test system: RXF 393 renal
SF-539 CNS = test system: SF-539 CNS
ACHN renal = test system: ACHN renal
SK-MEL-2 melanoma = test system: SK-MEL-2 melanoma
K-562 leukemia = test system: K-562 leukemia
KM12 colon = test system: KM12 colon

`Cc1nnc(N/N=C(/C(=O)C(C#N)c2ccccc2)C(C#N)c2ccccc2)n1N` (stereo unspecified) was tested, and the TGI (HCC-2998 colon) was 11 µM, the TGI (SNB-75 CNS) was 34.7 µM and the TGI (NCI-H522 lung) was 56.1 µM. The TGI (786-0 renal) was 25 µM, the TGI (RXF 393 renal) was 24.1 µM and the TGI (SF-539 CNS) was > 65.2 µM. It also gave a TGI (ACHN renal) of 65.5 µM, a TGI (SK-MEL-2 melanoma) of 12.5 µM and a TGI (K-562 leukemia) of 27.9 µM. For the same compound, the TGI (KM12 colon) was > 55.4 µM.
In the case of `NC(N)=NS(=O)(=O)c1ccc(NC(=O)c2cccc3c(Nc4ccc(S(N)(=O)=O)cc4)c4ccccc4nc23)cc1`, the TGI (HCC-2998 colon) is reported as > 100 µM, the TGI (SNB-75 CNS) is reported as > 100 µM and the TGI (NCI-H522 lung) is reported as > 100 µM. For the same compound, the TGI (786-0 renal) was > 100 µM, the TGI (RXF 393 renal) was > 100 µM and the TGI (SF-539 CNS) was > 100 µM. The TGI (ACHN renal) was > 100 µM, the TGI (SK-MEL-2 melanoma) was > 100 µM and the TGI (K-562 leukemia) was > 100 µM. The TGI (KM12 colon) was > 100 µM.
Compound `NC(=O)C1(N2CCCCC2)CCN(CCCC(=O)c2ccc(F)cc2)CC1` has a GI50 (HCC-2998 colon) of 1.78 µM, a TGI (HCC-2998 colon) of 6.19 µM and a GI50 (SNB-75 CNS) of 0.147 µM. The TGI (SNB-75 CNS) was > 100 µM, the GI50 (NCI-H522 lung) was 0.0965 µM and the GI50 (786-0 renal) was 4.59 µM. It also gave a TGI (786-0 renal) of 43.2 µM, a GI50 (RXF 393 renal) of 2.32 µM and a TGI (RXF 393 renal) of 7.38 µM. The GI50 (SF-539 CNS) was 1.42 µM, the TGI (SF-539 CNS) was 13.6 µM and the GI50 (ACHN renal) was 12.2 µM. For the same compound, the TGI (ACHN renal) was > 100 µM, the GI50 (SK-MEL-2 melanoma) was 0.0925 µM and the TGI (SK-MEL-2 melanoma) was > 100 µM. For the same compound, the GI50 (K-562 leukemia) was 0.28 µM, the TGI (K-562 leukemia) was > 100 µM and the GI50 (KM12 colon) was 1.39 µM. For the same compound, the TGI (KM12 colon) was 67.6 µM.
For `CC(=O)[O-].CC(=O)[O-].CC(=O)[O-].CC(=O)[O-].[Mo+2].[Mo+2]`, the GI50 (HCC-2998 colon) was > 100 µM, the TGI (HCC-2998 colon) was > 100 µM and the GI50 (SNB-75 CNS) was 63.5 µM. The TGI (SNB-75 CNS) was > 100 µM, the GI50 (NCI-H522 lung) was > 100 µM and the TGI (NCI-H522 lung) was > 100 µM. For the same compound, the GI50 (786-0 renal) was > 100 µM, the TGI (786-0 renal) was > 100 µM and the GI50 (RXF 393 renal) was > 100 µM. The TGI (RXF 393 renal) was > 100 µM, the GI50 (SF-539 CNS) was > 100 µM and the TGI (SF-539 CNS) was > 100 µM. For the same compound, the GI50 (ACHN renal) was > 100 µM, the TGI (ACHN renal) was > 100 µM and the GI50 (SK-MEL-2 melanoma) was > 100 µM. For the same compound, the TGI (SK-MEL-2 melanoma) was > 100 µM, the GI50 (K-562 leukemia) was > 100 µM and the TGI (K-562 leukemia) was > 100 µM. For the same compound, the GI50 (KM12 colon) was > 100 µM and the TGI (KM12 colon) was > 100 µM.
For `OC(c1ccc(Br)cc1)(c1cccs1)C1CC1` (stereo unspecified), the TGI (HCC-2998 colon) was 55.6 µM, the TGI (SNB-75 CNS) was 66.2 µM and the TGI (NCI-H522 lung) was 40.9 µM. The TGI (786-0 renal) was 36 µM, the TGI (RXF 393 renal) was 39.1 µM and the TGI (SF-539 CNS) was 45.9 µM. The TGI (ACHN renal) was 76.3 µM, the TGI (SK-MEL-2 melanoma) was 40.4 µM and the TGI (K-562 leukemia) was > 100 µM. For the same compound, the TGI (KM12 colon) was 35.3 µM.
`CC(=O)OC1COC(n2c(=S)n(-c3ccccc3)c(=O)c3cc(Br)ccc32)C(OC(C)=O)C1OC(C)=O` (stereo unspecified) was tested, and the TGI (HCC-2998 colon) was > 100 µM, the TGI (SNB-75 CNS) was 30.6 µM and the TGI (NCI-H522 lung) was > 100 µM. The TGI (786-0 renal) was > 100 µM, the TGI (RXF 393 renal) was 66.6 µM and the TGI (SF-539 CNS) was 77.7 µM. The TGI (ACHN renal) was > 100 µM, the TGI (SK-MEL-2 melanoma) was > 100 µM and the TGI (K-562 leukemia) was > 100 µM. For the same compound, the TGI (KM12 colon) was > 100 µM.
In the case of `CNC(=O)c1cc2c(Oc3ccc(NC(=O)C4(C(=O)Nc5ccc(F)cc5)CC4)cc3)ccnc2cc1OC`, the GI50 (HCC-2998 colon) is reported as 5.61 µM, the TGI (HCC-2998 colon) is reported as > 100 µM and the GI50 (SNB-75 CNS) is reported as 0.0837 µM. The TGI (SNB-75 CNS) was 2.74 µM, the GI50 (NCI-H522 lung) was 2.51 µM and the TGI (NCI-H522 lung) was > 100 µM. For the same compound, the GI50 (786-0 renal) was 3.46 µM, the TGI (786-0 renal) was > 100 µM and the GI50 (RXF 393 renal) was 1.58 µM. It also gave a TGI (RXF 393 renal) of 3.53 µM, a GI50 (SF-539 CNS) of 0.463 µM and a TGI (SF-539 CNS) of 6.56 µM. For the same compound, the GI50 (ACHN renal) was 2.31 µM, the TGI (ACHN renal) was > 100 µM and the GI50 (SK-MEL-2 melanoma) was 2.02 µM. For the same compound, the TGI (SK-MEL-2 melanoma) was 5.92 µM, the GI50 (K-562 leukemia) was 0.37 µM and the TGI (K-562 leukemia) was 3.4 µM. For the same compound, the GI50 (KM12 colon) was 0.196 µM and the TGI (KM12 colon) was > 100 µM.
`COc1ccc(/C=C2/CCc3cc4ccc(OC)cc4[o+]c32)c(O)c1` gave a GI50 (HCC-2998 colon) of 15.3 µM, a TGI (HCC-2998 colon) of 32.6 µM and a GI50 (SNB-75 CNS) of 12.9 µM. It also gave a TGI (SNB-75 CNS) of 27.9 µM, a GI50 (NCI-H522 lung) of 12.7 µM and a TGI (NCI-H522 lung) of 30.5 µM. For the same compound, the GI50 (786-0 renal) was 3.97 µM, the TGI (786-0 renal) was 19.8 µM and the GI50 (RXF 393 renal) was 7.08 µM. It also gave a TGI (RXF 393 renal) of 24.6 µM, a GI50 (SF-539 CNS) of 15.1 µM and a TGI (SF-539 CNS) of 31.8 µM. The GI50 (ACHN renal) was 4.15 µM, the TGI (ACHN renal) was 15.8 µM and the GI50 (SK-MEL-2 melanoma) was 11.8 µM. It also gave a TGI (SK-MEL-2 melanoma) of 25.3 µM, a GI50 (K-562 leukemia) of 11.4 µM and a TGI (K-562 leukemia) of 93.8 µM. The GI50 (KM12 colon) was 2.65 µM and the TGI (KM12 colon) was 7.44 µM.
In the case of `C=CCSc1nc2ccccc2c(=O)n1Cc1ccco1`, the TGI (HCC-2998 colon) is reported as > 100 µM, the TGI (SNB-75 CNS) is reported as > 100 µM and the TGI (NCI-H522 lung) is reported as > 100 µM. The TGI (786-0 renal) was > 100 µM, the TGI (RXF 393 renal) was > 100 µM and the TGI (SF-539 CNS) was > 100 µM. The TGI (ACHN renal) was > 100 µM, the TGI (SK-MEL-2 melanoma) was > 100 µM and the TGI (K-562 leukemia) was > 100 µM. The TGI (KM12 colon) was > 100 µM.
With `O=C1C(Cl)=C(Nc2ccccc2)C(=O)c2ccccc21` the GI50 (HCC-2998 colon) was 2.15 µM, the TGI (HCC-2998 colon) was 4.29 µM and the GI50 (SNB-75 CNS) was 1.83 µM. The TGI (SNB-75 CNS) was 12 µM, the GI50 (NCI-H522 lung) was 1.66 µM and the TGI (NCI-H522 lung) was 3.77 µM. It also gave a GI50 (786-0 renal) of 6.57 µM, a TGI (786-0 renal) of 19.6 µM and a GI50 (RXF 393 renal) of 1.6 µM. For the same compound, the TGI (RXF 393 renal) was 2.99 µM, the GI50 (SF-539 CNS) was 5.41 µM and the TGI (SF-539 CNS) was 17.5 µM. For the same compound, the GI50 (ACHN renal) was 1.63 µM, the TGI (ACHN renal) was 3.13 µM and the GI50 (SK-MEL-2 melanoma) was 1.87 µM. For the same compound, the TGI (SK-MEL-2 melanoma) was 3.69 µM, the GI50 (K-562 leukemia) was 0.648 µM and the TGI (K-562 leukemia) was > 100 µM. The GI50 (KM12 colon) was 6.23 µM and the TGI (KM12 colon) was > 100 µM.
In the case of `CC1(Cc2ccccc2)NC(=S)NC1=O` (stereo unspecified), the TGI (HCC-2998 colon) is reported as > 100 µM, the TGI (SNB-75 CNS) is reported as > 100 µM and the TGI (NCI-H522 lung) is reported as > 100 µM. The TGI (786-0 renal) was > 100 µM, the TGI (RXF 393 renal) was > 100 µM and the TGI (SF-539 CNS) was > 100 µM. For the same compound, the TGI (ACHN renal) was > 100 µM, the TGI (SK-MEL-2 melanoma) was > 100 µM and the TGI (KM12 colon) was > 100 µM.
Compound `Cn1cc(-c2csc(-c3cn(C)c4ccccc34)n2)c2cnccc21` has a GI50 (HCC-2998 colon) of 1.26 µM, a TGI (HCC-2998 colon) of 2.6 µM and a GI50 (SNB-75 CNS) of 4.08 µM. For the same compound, the TGI (SNB-75 CNS) was 16.9 µM, the GI50 (NCI-H522 lung) was 2 µM and the TGI (NCI-H522 lung) was 3.84 µM. The GI50 (786-0 renal) was 1.95 µM, the TGI (786-0 renal) was 3.53 µM and the GI50 (RXF 393 renal) was 1.7 µM. The TGI (RXF 393 renal) was 3.28 µM, the GI50 (SF-539 CNS) was 1.75 µM and the TGI (SF-539 CNS) was 3.2 µM. For the same compound, the GI50 (ACHN renal) was 1.8 µM, the TGI (ACHN renal) was 3.19 µM and the GI50 (SK-MEL-2 melanoma) was 2 µM. It also gave a TGI (SK-MEL-2 melanoma) of 3.7 µM, a GI50 (KM12 colon) of 1 µM and a TGI (KM12 colon) of 2.48 µM.
